Consider 38 compounds from patent publication US11261186B2, “Biaryl derivative as GPR120 agonist” (LG CHEM, LTD., priority 2014, dated 2022).

As usually defined, the EC50 is the concentration giving half of the maximal effect.

In this assay the target is T1, hGPR120 (Homo sapiens, UniProt Q5NUL3).
T1 construct: expressed in transfected cells; host or cells: CHO-K1
T1 sequence (Q5NUL3 1-361): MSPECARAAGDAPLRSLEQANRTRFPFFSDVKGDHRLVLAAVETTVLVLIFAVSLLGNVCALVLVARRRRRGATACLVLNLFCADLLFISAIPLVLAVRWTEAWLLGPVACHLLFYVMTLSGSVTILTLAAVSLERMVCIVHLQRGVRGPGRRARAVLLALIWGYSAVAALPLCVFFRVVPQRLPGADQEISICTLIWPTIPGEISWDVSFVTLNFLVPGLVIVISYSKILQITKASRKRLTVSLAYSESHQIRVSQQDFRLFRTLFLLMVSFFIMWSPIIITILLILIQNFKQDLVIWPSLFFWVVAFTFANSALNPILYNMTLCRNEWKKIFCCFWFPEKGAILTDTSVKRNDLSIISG
Put plainly: Measurement of Activity of GPR120 Agonist (Cell-Based Assay), Calcium 5 dye fluorescence. The following applies: CHO-K1 cells expressing Ga16 and hGPR120. The method, boiled down: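 CHO-K1 cells co-expressing Gα16 and hGPR120 were seeded, cultured 18 h at 37 °C, then loaded 1 h with Calcium 5 dye. Serially diluted agonists (final 0.5% DMSO) were added and fluorescence read at Ex 485/Em 525 nm, expressed as percent relative to 1% DMSO-only wells.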
For `O=C(O)CCCSc1ccc(-c2cccnc2OCC2CC2)cc1F` [Example 239, 4-[4-(2-cyclopropylmethoxy-pyridin-3-yl)-2-fluoro-phenylsulfanyl]-butyric acid], the EC50 is below 200 nM.

On to `O=C(O)CCCOc1ccc(-c2cccnc2OCC2CC2)cc1F` [Example 240, 4-[4-(2-cyclopropylmethoxy-pyridin-3-yl)-2-fluoro-phenoxy]-butyric acid], for which the EC50 is 200 to 2000 nM.

Turning to `O=C(O)CCCOc1ccc(-c2cccnc2OCC2CCC2)cc1F` [Example 241, 4-[4-(2-cyclobutylmethoxy-pyridin-3-yl)-2-fluoro-phenoxy]-butyric acid], the EC50 was below 200 nM.

Consider `O=C(O)CCCCc1ccc(-c2cccnc2OC2CCCC2)cc1F` [Example 244, 5-[4-(2-cyclopentyloxy-pyridin-3-yl)-2-fluoro-phenyl]-pentanoic acid], for which the 50% effective concentration (EC50) was below 200 nM.

Regarding `O=C(O)CCCCc1ccc(-c2cccnc2OC2CCC2)cc1F` [Example 245, 5-[4-(2-cyclobutoxy-pyridin-3-yl)-2-fluoro-phenyl]-pentanoic acid], the EC50 is below 200 nM.

For `O=C(O)CCCCc1ccc(-c2cccnc2OCC2CCC2)cc1F` [Example 246, 5-[4-(2-cyclobutylmethoxy-pyridin-3-yl)-2-fluoro-phenyl]-pentanoic acid], the EC50 is below 200 nM.

As for `O=C(O)CCCCc1ccc(-c2cccnc2OCC2CC2)cc1F` [Example 247, 5-[4-(2-cyclopropylmethoxy-pyridin-3-yl)-2-fluoro-phenyl]-pentanoic acid], the EC50 is below 200 nM.

Consider `O=C(O)CCCCc1ccc(-c2cccnc2SC2CCCC2)cc1F` [Example 248, 5-[4-(2-cyclopentylsulfanyl-pyridin-3-yl)-2-fluoro-phenyl]-pentanoic acid], for which the EC50 is below 200 nM.

Turning to `O=C(O)CCCCc1ccc(-c2cccnc2SC2CCC2)cc1F` [Example 249, 5-[4-(2-cyclobutylsulfanyl-pyridin-3-yl)-2-fluoro-phenyl]-pentanoic acid], the EC50 is below 200 nM.

On to `O=C(O)CCCCc1c(F)cc(-c2cccnc2OCC2CCC2)cc1F` [Example 250, 5-[4-(2-cyclobutylmethoxy-pyridin-3-yl)-2,6-difluoro-phenyl]-pentanoic acid], for which the EC50 is below 200 nM.

On to `O=C(O)CCCCc1c(F)cc(-c2cccnc2OC2CCC2)cc1F` [Example 251, 5-[4-(2-cyclobutoxy-pyridin-3-yl)-2,6-difluoro-phenyl]-pentanoic acid], for which the EC50 is below 200 nM.

As to `O=C(O)CCCCc1c(F)cc(-c2cccnc2OCC2CC2)cc1F` [Example 252, 5-[4-(2-cyclopropylmethoxy-pyridin-3-yl)-2,6-difluoro-phenyl]-pentanoic acid], the EC50 was below 200 nM.

`CC1(C)Cc2cc(Cl)cc(-c3cc(F)c(OCCCC(=O)O)c(F)c3)c2O1` [Example 253, 4-[4-(5-chloro-2,2-dimethyl-2,3-dihydro-benzofuran-7-yl)-2,6-difluoro-phenoxy]-butyric acid]: the EC50 lay within 200 to 2000 nM.

In the case of `CC1(C)Cc2cc(Cl)cc(-c3cc(F)c(SCCCC(=O)O)c(F)c3)c2O1` [Example 254, 4-[4-(5-chloro-2,2-dimethyl-2,3-dihydro-benzofuran-7-yl)-2,6-difluoro-phenylsulfanyl]-butyric acid], the EC50 was 200 to 2000 nM.

In the case of `CN(CCCC(=O)O)c1c(F)cc(-c2cc(Cl)cc3c2OC(C)(C)C3)cc1F` [Example 255, 4-{[4-(5-chloro-2,2-dimethyl-2,3-dihydro-benzofuran-7-yl)-2,6-difluoro-phenyl]-methyl-amino}-butyric acid], the EC50 is below 200 nM.

Turning to `CC(CCCC(=O)O)c1c(F)cc(-c2cc(Cl)cc3c2OC(C)(C)C3)cc1F` (centres unmarked) [Example 256, 5-[4-(5-chloro-2,2-dimethyl-2,3-dihydro-benzofuran-7-yl)-2,6-difluoro-phenyl]-hexanoic acid], the 50% effective concentration (EC50) lay within 200 to 2000 nM.

For `COc1ccc(-c2cc(F)c(OCCCC(=O)O)c(F)c2)c2c1OC(C)(C)C2` [Example 257, 4-[2,6-difluoro-4-(7-methoxy-2,2-dimethyl-2,3-dihydro-benzofuran-4-yl)-phenoxy]-butyric acid], the EC50 was below 200 nM.

For the compound `COc1ccc(-c2cc(F)c(SCCCC(=O)O)c(F)c2)c2c1OC(C)(C)C2` [Example 258, 4-[2,6-difluoro-4-(7-methoxy-2,2-dimethyl-2,3-dihydro-benzofuran-4-yl)-phenylsulfanyl]-butyric acid], the EC50 was below 200 nM.

For the compound `COc1ccc(-c2cc(F)c(N(C)CCCC(=O)O)c(F)c2)c2c1OC(C)(C)C2` [Example 259, 4-{[2,6-difluoro-4-(7-methoxy-2,2-dimethyl-2,3-dihydro-benzofuran-4-yl)-phenyl]-methyl-amino}-butyric acid], the EC50 was below 200 nM.

With `COc1ccc(-c2cc(F)c(C(C)CCCC(=O)O)c(F)c2)c2c1OC(C)(C)C2` (centres unmarked) [Example 260], the concentration giving a half-maximal response (EC50) is below 200 nM.

As for `O=C(O)CCCOc1c(F)cc(-c2cccc3c2OC2(CCCC2)C3)cc1F` [Example 261, 4-(2,6-difluoro-4-spiro[3H-benzofuran-2,1′-cyclopentan]-7-yl-phenoxy)-butyric acid], the EC50 was below 200 nM.

Turning to `O=C(O)CCCSc1c(F)cc(-c2cccc3c2OC2(CCCC2)C3)cc1F` [Example 262, 4-(2,6-difluoro-4-spiro[3H-benzofuran-2,1′-cyclopentan]-7-yl-phenylsulfanyl)-butyric acid], the EC50 was below 200 nM.

On to `CN(CCCC(=O)O)c1c(F)cc(-c2cccc3c2OC2(CCCC2)C3)cc1F` [Example 263, 4-(2,6-difluoro-N-methyl-4-spiro[3H-benzofuran-2,1′-cyclopentan]-7-yl-anilino)-butyric acid], for which the EC50 is below 200 nM.

`CC(CCCC(=O)O)c1c(F)cc(-c2cccc3c2OC2(CCCC2)C3)cc1F` (centres unmarked) [Example 264, 5-(2,6-difluoro-4-spiro[3H-benzofuran-2,1′-cyclopentan]-7-yl-phenyl)-hexanoic acid]: the EC50 lay in the range of 200 to 2000 nM.

As for `COC(=O)N1c2c(cc(F)cc2-c2cc(F)c(OCCCC(=O)O)c(F)c2)CC1(C)C` [Example 265, 7-[4-(3-carboxy-propoxy)-3,5-difluoro-phenyl]-5-fluoro-2,2-dimethyl-2,3-dihydro-indol-1-carboxylic acid methyl ester], the concentration for a half-maximal effect (EC50) was in the range of 200 to 2000 nM.

Turning to `CC1(C)Cc2cc(F)cc(-c3cc(F)c(OCCCC(=O)O)c(F)c3)c2N1` [Example 266, 4-[2,6-difluoro-4-(5-fluoro-2,2-dimethyl-2,3-dihydro-1H-indol-7-yl)-phenoxy]-butyric acid], the EC50 lay in the range of 200 to 2000 nM.

Take `CC1(C)Cc2c(ccc(F)c2-c2cc(F)c(OCCCC(=O)O)c(F)c2)N1` [Example 268, 4-[2,6-difluoro-4-(5-fluoro-2,2-dimethyl-2,3-dihydro-1H-indol-4-yl)-phenoxy]-butyric acid]: the EC50 lay within 200 to 2000 nM.

For the compound `CC(C)Sc1ncccc1-c1ccc2c(c1)CCC(CCC(=O)O)S2` (centres unmarked) [Example 270, 3-[6-(2-isopropylsulfanyl-pyridin-3-yl)-thiochroman-2-yl]-propionic acid], the EC50 is below 200 nM.

`O=C(O)CCC1CCc2cc(-c3cccnc3OC3CCCC3)ccc2S1` (centres unmarked) [Example 271, 3-[6-(2-cyclopentoxy-pyridin-3-yl)-thiochroman-2-yl]-propionic acid]: the 50% effective concentration (EC50) was below 200 nM.

For `O=C(O)CCC1CCc2cc(-c3cccnc3SC3CCC3)ccc2O1` (centres unmarked) [Example 272, 3-[6-(2-cyclobutylsulfanyl-pyridin-3-yl)-chroman-2-yl]-propionic acid], the EC50 is below 200 nM.

As for `COc1ccc(-c2ccc3c(c2)CCC(CCC(=O)O)O3)c2c1OC(C)(C)C2` (centres unmarked) [Example 273, 3-[6-(7-methoxy-2,2-dimethyl-2,3-dihydro-benzofuran-4-yl)-chroman-2-yl]-propionic acid], the 50% effective concentration (EC50) lay in the range of 2000 to 20000 nM.

In the case of `COc1ccc(-c2ccc3c(c2)CCC(CCC(=O)O)S3)c2c1OC(C)(C)C2` (centres unmarked) [Example 274, 3-[6-(7-methoxy-2,2-dimethyl-2,3-dihydro-benzofuran-4-yl)-thiochroman-2-yl]-propionic acid], the EC50 was 200 to 2000 nM.

As for `O=C(O)CCC1CCc2cc(-c3cccnc3SC3CCC3)ccc2S1` (centres unmarked) [Example 275, 3-[6-(2-cyclobutylsulfanyl-pyridin-3-yl)-thiochroman-2-yl]-propionic acid], the EC50 was below 200 nM.

As to `O=C(O)CCC1CCc2cc(-c3cccnc3OCC3CC3)ccc2O1` (centres unmarked) [Example 276, 3-[6-(2-cyclopropylmethoxy-pyridin-3-yl)-chroman-2-yl]-propionic acid], the EC50 fell in the range of 200 to 2000 nM.

On to `O=C(O)CCC1CCc2cc(-c3cccnc3OC3CCC3)ccc2O1` (centres unmarked) [Example 277, 3-[6-(2-cyclobutoxy-pyridin-3-yl)-chroman-2-yl]-propionic acid], for which the EC50 fell in the range of 200 to 2000 nM.

Turning to `O=C(O)CCC1CCc2cc(-c3cccnc3OC3CCC3)ccc2S1` (centres unmarked) [Example 278, 3-[6-(2-cyclobutoxy-pyridin-3-yl)-thiochroman-2-yl]-propionic acid], the EC50 is below 200 nM.

For `O=C(O)CCC1CCc2cc(-c3cccnc3OCC3CC3)ccc2S1` (centres unmarked) [Example 279, 3-[6-(2-cyclopropylmethoxy-pyridin-3-yl)-thiochroman-2-yl]-propionic acid], the EC50 is below 200 nM.

For `O=C(O)CCC1CCc2cc(-c3cccnc3SC3CCCC3)ccc2O1` (centres unmarked) [Example 280, 3-[6-(2-cyclopentylsulfanyl-pyridin-3-yl)-chroman-2-yl]-propionic acid], the EC50 was below 200 nM.
